Reference: US20170112732A1, “ENCAPSULATION OF ORAL CARE ACTIVE AGENTS” (KONINKLIJKE PHILIPS N.V., priority 2014, published 2017)
Structures can show the parent of a compound that is named as a salt.

Experiment: Determination of ethyl formate solubility in paraffin oil (GC-FID)
Assay type: physicochemical
Experimental: 12 mL of ethyl formate (0.917 g/cm^3) were added to 18 mL of liquid paraffin (density, 0.830 g/cm^3) in a glass bottle. The bottle was then closed with butyl rubber stopper and aluminium crimp seal and seal with a hand crimper before vigorously mixing the system with a vortex for 2 min. The bottle containing the mixture was immersed in a temperature-controlled jacketed beaker for 24 h and to allow the formation of two distinct layers, an upper layer consisting of ethyl formate and Liquid paraffin and the lower layer with only ethyl formate. Samples were withdrawn from the upper layer with a needle, filtered and analysed using a gas chromatography with flame ionisation detector (GC-FID) under the conditions presented in table 2. The quantity of ethyl formate in the mixture was inferred from the calibration curve obtained with different concentration of ethyl formate diluted with anhydrous ethanol.

SMILES: CCOC=O [Ethyl formate, ethyl formate]
- Ethyl formate solubility in liquid paraffin (5 ° C.): 13.4 % v/v
- Ethyl formate solubility in liquid paraffin (10 ° C.): 16.3 % v/v
- Ethyl formate solubility in liquid paraffin (20 ° C.): 26.8 % v/v
- Ethyl formate solubility in liquid paraffin (30 ° C.): 38.9 % v/v
